Consider 5 compounds from EPA's ToxRefDB 2.

Usually LOAEL stands for the lowest dose or exposure tested at which an adverse effect was seen. What is called NOAEL is the highest dose or exposure tested at which no adverse effect was seen.

Data set [1] relates to rat. To be noted: Developmental neurotoxicity study, sprague dawley, Oral, [Not Specified], dose end: 155 PND, group: cannot be grouped.
The subject of the next data set is mouse. To be noted: Carcinogenicity; b6c3f1; Oral; Feed; dose end: 80 week; group: systemic; systemic / pathology microscopic / liver / hepatocellular carcinoma.
The test system of data set [2] is rat. To be noted: Carcinogenicity, Osborne-Mendel, Oral, Feed, dose end: 80 week, group: systemic.
In the next data set the test system is mink. Particulars: Multigenerational reproductive toxicity study, ranch wild brown, Oral, Feed, dose end: 1 generation.
The subject of data set [3] is rat. To be noted: Subchronic oral toxicity in rodents, sprague dawley, Gavage/Intubation, dose end: 92 day, group: systemic, systemic / pathology microscopic / stomach / thickened.
The next data set relates to dog. Particulars: Subchronic oral toxicity in nonrodent, beagle, Feed, dose end: 90 day, group: systemic.
For data set [4], the system named is rat. Particulars: Subchronic oral toxicity in rodents, sprague dawley, Feed, dose end: 13 week, group: systemic.
For data set [5], the system named is rat. Particulars: Prenatal developmental toxicity study, sprague dawley, Oral, Gavage/Intubation, dose end: 16 GD.
Data set [6] relates to rat. To be noted: Subchronic oral toxicity in rodents, sprague dawley, Gavage/Intubation, dose end: 90 day, group: systemic, systemic / pathology microscopic / stomach / hyperkeratosis + systemic / pathology microscopic / stomach / hyperplasia.
Data set [7] concerns rat. To be noted: Prenatal developmental toxicity study; sprague dawley; Oral; Gavage/Intubation; dose end: 15 GD; group: maternal; systemic / in life observation / clinical signs / post-dosing rooting in bedding + systemic / in life observation / food consumption / food ….
Data set [8] relates to rat. To be noted: Prenatal developmental toxicity study, sprague dawley, Oral, Gavage/Intubation, dose end: 15 GD.
Data set [9] deals with primate. Particulars: Sub-acute repeat dose toxicity, Oral, Gavage/Intubation, dose end: 7 day, group: systemic.
The test system of data set [10] is rat. To be noted: Sub-acute repeat dose toxicity, sprague dawley, Oral, Gavage/Intubation, dose end: 14 day, group: systemic.
Data set [11] has as its system rat. Particulars: Sub-acute repeat dose toxicity, Oral, Gavage/Intubation, dose end: 7 day, group: systemic.
Data set [12] deals with primate. To be noted: Sub-acute repeat dose toxicity, Oral, Gavage/Intubation, dose end: 14 day, group: systemic.
Data set [13] has as its system rat. Particulars: Multigenerational reproductive toxicity study, wistar, Oral, Feed, dose end: 2 generation.
In data set [14] the test system is rat. To be noted: Multigenerational reproductive toxicity study, wistar, Oral, Feed, dose end: 2 generation. The source holds these as a separate data set.
Data set [15] has as its system rat. To be noted: Developmental neurotoxicity study; sprague dawley; Oral; Gavage/Intubation; dose end: 125 PND; group: cannot be grouped; systemic / in life observation / body weight / offspring (pup) weight + systemic / in life observation / body weight / offspring (pup) ….
The mark [16] stands for this setting: systemic / clinical chemistry / [other] / [other] + systemic / clinical chemistry / chloride / chloride + systemic / in life observation / ….
Where [17] appears, read: systemic / clinical chemistry / chloride / chloride + systemic / in life observation / clinical signs / urination.
The mark [18] stands for this setting: systemic / in life observation / clinical signs / palpable mass + systemic / in life observation / clinical signs / vaginal discharge.
Setting [19] is: systemic / in life observation / clinical signs / palpable mass + systemic / in life observation / clinical signs / vaginal discharge + ….
[20] abbreviates: group: offspring, developmental / offspring survival late / [other] / [other] + systemic / in life observation / body weight / offspring (pup) weight.
Where [21] appears, read: group: offspring, systemic / in life observation / body weight / offspring (pup) weight.
The mark [22] stands for this setting: group: parental, systemic / in life observation / body weight / body weight + systemic / in life observation / clinical signs / [other] + systemic / in life ….
Where [23] appears, read: group: reproductive, reproductive / reproductive performance / resorptions / resorptions + reproductive / offspring survival early / dead fetuses / dead fetuses.
The mark [24] stands for this setting: systemic / in life observation / body weight / body weight + systemic / in life observation / food consumption / food consumption + systemic….
Where [25] appears, read: systemic / in life observation / body weight / body weight.
[26] abbreviates: systemic / in life observation / body weight / body weight + systemic / in life observation / food consumption / food efficiency + systemic….
[27] abbreviates: group: developmental, developmental / developmental malformation / bone / incomplete ossification + developmental / developmental malformation / bone / unossified….
The mark [28] stands for this setting: group: maternal, systemic / in life observation / body weight / body weight gain + systemic / in life observation / food consumption / food consumption + ….
Where [29] appears, read: group: developmental, developmental / developmental malformation / bone / [other].
The mark [30] stands for this setting: group: maternal, systemic / in life observation / body weight / body weight + systemic / in life observation / clinical signs / [other] + systemic / in life ….
The mark [31] stands for this setting: systemic / clinical chemistry / phosphorus / phosphorus + systemic / clinical chemistry / sodium / sodium + systemic / clinical chemistry / ….
[32] abbreviates: systemic / pathology microscopic / vagina / prolapse + systemic / in life observation / clinical signs / vomitting + systemic / in life ….
Setting [33] is: systemic / clinical chemistry / albumin / albumin + systemic / clinical chemistry / globulins / globulins + systemic / pathology microscopic….
Setting [34] is: systemic / in life observation / mortality / mortality + systemic / pathology microscopic / stomach / degeneration + systemic / clinical ….
Where [35] appears, read: systemic / in life observation / body weight / body weight + systemic / clinical chemistry / chloride / chloride + systemic / clinical ….
Where [36] appears, read: group: offspring, developmental / developmental landmark / anogenital distance (agd) / anogenital distance (agd) + developmental / developmental landmark / ….
The mark [37] stands for this setting: group: parental, systemic / in life observation / body weight / body weight gain + systemic / in life observation / body weight / body weight + systemic / ….
Where [38] appears, read: group: reproductive, reproductive / offspring survival early / birth index / live birth index + reproductive / reproductive performance / estrous cycle / ….
[39] abbreviates: group: parental, systemic / organ weight / epididymis / absolute + systemic / organ weight / testes / absolute.

Each structure is given as a SMILES string.

Consider `ClC1=C(Cl)C2(Cl)C3C(Cl)C=CC3C1(Cl)C2(Cl)Cl` (stereo not drawn) [Heptachlor], for which the LOAEL with rat [1] (setting [16]) was above 3 mg/kg/day; with mouse, above 2.07 mg/kg/day; with rat [2] (setting [19]), above 2.56 mg/kg/day; in the data set on mink (setting [20]), above 25 mg/kg/day; in the data set with mink (setting [22]), above 25 mg/kg/day; in the data set with mink (setting [23]), above 25 mg/kg/day. Moreover, the NOAEL with rat [1] (setting [16]) is at least 3 mg/kg/day; in the data set on mouse, at least 2.07 mg/kg/day; in the data set with rat [2] (setting [19]) it was at least 2.56 mg/kg/day; in the data set on mink (setting [20]) it was at least 25 mg/kg/day; with mink (setting [22]), at least 25 mg/kg/day; in the data set on mink (setting [23]), at least 25 mg/kg/day. The LEL with rat [1] (setting [17]) came to 0.03 mg/kg/day; in the data set with mouse, 2.07 mg/kg/day; with rat [2] (setting [18]) it was 1.28 mg/kg/day; in the data set with mink (setting [21]), 6.25 mg/kg/day; in the data set with mink (setting [22]), 12.5 mg/kg/day; in the data set with mink (setting [23]) it was 12.5 mg/kg/day. Besides, the NEL with rat [1] (setting [17]) is below 0.03 mg/kg/day; with mouse, 0.915 mg/kg/day; in the data set with rat [2] (setting [18]) it was below 1.28 mg/kg/day; in the data set on mink (setting [21]) it was below 6.25 mg/kg/day; with mink (setting [22]), 6.25 mg/kg/day; in the data set on mink (group: reproductive, reproductive / reproductive performance / resorptions / resorptions), 6.25 mg/kg/day.
Take `O=c1[nH]sc2ccccc12` [1,2-Benzisothiazolin-3-one]: the LEL was found to be 10 mg/kg/day in the data set with rat [3]; 89 mg/kg/day in the data set on dog (setting [24]); 69 mg/kg/day in the data set on rat [4] (setting [25]); 40 mg/kg/day with rat [5] (group: developmental, developmental / developmental malformation / bone / unossified); 40 mg/kg/day in the data set on rat [5] (group: maternal, systemic / in life observation / clinical signs / abnormal respiratory sounds); 10 mg/kg/day in the data set on rat [6]. For the same compound, the LOAEL was 10 mg/kg/day in the data set on rat [3]; 89 mg/kg/day in the data set with dog (systemic / in life observation / body weight / body weight + systemic / in life observation / food consumption / food consumption); 69 mg/kg/day in the data set on rat [4] (setting [25]); 100 mg/kg/day in the data set with rat [5] (setting [27]); 100 mg/kg/day with rat [5] (group: maternal, systemic / in life observation / body weight / body weight gain + systemic / in life observation / food consumption / food consumption); above 10 mg/kg/day with rat [6]. Further, the NEL is below 10 mg/kg/day with rat [3]; 38 mg/kg/day in the data set on dog (setting [24]); 15.3 mg/kg/day in the data set on rat [4] (setting [26]); 10 mg/kg/day in the data set on rat [5] (setting [27]); 10 mg/kg/day in the data set with rat [5] (setting [28]). For the same compound, the NOAEL with rat [3] is below 10 mg/kg/day; in the data set on dog (setting [24]), 38 mg/kg/day; in the data set on rat [4] (setting [26]), 15.3 mg/kg/day; in the data set with rat [5] (setting [27]), 40 mg/kg/day; in the data set with rat [5] (setting [28]) it was 40 mg/kg/day; in the data set with rat [6] it was at least 10 mg/kg/day.
Regarding `CSc1nc(NC2CC2)nc(NC(C)(C)C)n1` [Cybutryne], the LEL in the data set with rat [7] came out at 150 mg/kg/day; with rat [8] (setting [29]), 300 mg/kg/day; in the data set with rat [8] (group: maternal, systemic / in life observation / body weight / body weight + systemic / in life observation / clinical signs / [other]), 150 mg/kg/day. The LOAEL in the data set with rat [7] is 150 mg/kg/day; with rat [8] (setting [29]) it was above 300 mg/kg/day; with rat [8] (group: maternal, systemic / in life observation / body weight / body weight + systemic / in life observation / body weight / body weight gain), 300 mg/kg/day. In addition, the results for the NEL with rat [7], with rat [8] (setting [29]) and with rat [8] (setting [30]) were 50 mg/kg/day, 150 mg/kg/day and 50 mg/kg/day, respectively. For the same compound, the NOAEL is 50 mg/kg/day in the data set on rat [7], at least 300 mg/kg/day with rat [8] (setting [29]) and 150 mg/kg/day in the data set on rat [8] (setting [30]).
Consider `CCn1nc(C)c2c1C(=O)NCC(c1ccc(O)cc1)=N2`, for which the LOAEL in the data set with primate [9] (setting [31]) is above 50 mg/kg/day; in the data set on rat [10] (setting [33]) it was above 80 mg/kg/day; in the data set on rat [11] (setting [34]), above 300 mg/kg/day; with primate [12] (setting [35]) it was above 20 mg/kg/day. Also, the NOAEL was at least 50 mg/kg/day with primate [9] (setting [31]), at least 80 mg/kg/day in the data set with rat [10] (setting [33]), at least 300 mg/kg/day with rat [11] (setting [34]) and at least 20 mg/kg/day in the data set with primate [12] (setting [35]). The LEL came out at 10 mg/kg/day in the data set on primate [9] (setting [32]), 40 mg/kg/day in the data set with rat [10] (systemic / organ weight / testes / absolute + systemic / pathology microscopic / heart / necrosis + systemic / pathology microscopic / …), 80 mg/kg/day in the data set on rat [11] (systemic / pathology microscopic / heart / fibrosis + systemic / pathology microscopic / heart / hemorrhage + systemic / pathology …) and 5 mg/kg/day in the data set with primate [12] (setting [25]). Further, the NEL with primate [9] (setting [32]) was below 10 mg/kg/day; with rat [10] (systemic / organ weight / testes / absolute + systemic / pathology microscopic / blood vessel / inflammation + systemic / pathology …), 20 mg/kg/day; in the data set on primate [12] (setting [25]), below 5 mg/kg/day.
On to `CCC[CH2][Sn]([Cl])([CH2]CCC)[CH2]CCC` [Tributyltin chloride], for which the LEL in the data set on rat [13] (group: offspring, developmental / developmental landmark / anogenital distance (agd) / anogenital distance (agd)) came out at 1.25 mg/kg/day; with rat [13] (setting [37]), 6.25 mg/kg/day; in the data set on rat [13] (setting [38]), 6.25 mg/kg/day; with rat [14] (setting [21]) it was 0.25 mg/kg/day; with rat [14] (setting [39]), 0.25 mg/kg/day; with rat [15], 5 mg/kg/day. Also, the LOAEL in the data set with rat [13] (setting [36]) is above 6.25 mg/kg/day; with rat [13] (setting [37]), above 6.25 mg/kg/day; in the data set on rat [13] (setting [38]), above 6.25 mg/kg/day; in the data set with rat [14] (setting [21]) it was 0.25 mg/kg/day; in the data set with rat [14] (setting [39]) it was 0.25 mg/kg/day; in the data set on rat [15], above 5 mg/kg/day. The NEL in the data set on rat [13] (setting [36]) is 0.25 mg/kg/day; with rat [13] (group: parental, systemic / in life observation / body weight / body weight gain), 1.25 mg/kg/day; in the data set on rat [13] (setting [38]) it was 1.25 mg/kg/day; with rat [14] (setting [21]) it was below 0.25 mg/kg/day; with rat [14] (setting [39]), below 0.25 mg/kg/day; in the data set on rat [15], 1 mg/kg/day. In addition, the NOAEL with rat [13] (setting [36]) is at least 6.25 mg/kg/day; in the data set with rat [13] (setting [37]), at least 6.25 mg/kg/day; in the data set with rat [13] (setting [38]), at least 6.25 mg/kg/day; in the data set on rat [14] (setting [21]), below 0.25 mg/kg/day; with rat [14] (setting [39]), below 0.25 mg/kg/day; in the data set with rat [15], at least 5 mg/kg/day.
